Here are results for eight molecules from ChEMBL document CHEMBL1629470, “Synthesis, biological evaluation and docking studies of 4-amino-tetrahydroquinazolino[3,2-e]purine derivatives” (Eur J Med Chem, 2010).

The target in test [1] is Proto-oncogene tyrosine-protein kinase Src (Homo sapiens) (UniProt P12931). Description: Inhibition of Src at 10 uM after 20 mins.
The test system of the next test is L1210. Description: Cytotoxicity against mouse L1210 cells after 4 hrs by MTT assay. It counts as functional. A general note: Formazan colour is commonly taken as a measure of viable cells.

Proto-oncogene tyrosine-protein kinase Src (Homo sapiens), sequence (P12931 2-536 limits assumed): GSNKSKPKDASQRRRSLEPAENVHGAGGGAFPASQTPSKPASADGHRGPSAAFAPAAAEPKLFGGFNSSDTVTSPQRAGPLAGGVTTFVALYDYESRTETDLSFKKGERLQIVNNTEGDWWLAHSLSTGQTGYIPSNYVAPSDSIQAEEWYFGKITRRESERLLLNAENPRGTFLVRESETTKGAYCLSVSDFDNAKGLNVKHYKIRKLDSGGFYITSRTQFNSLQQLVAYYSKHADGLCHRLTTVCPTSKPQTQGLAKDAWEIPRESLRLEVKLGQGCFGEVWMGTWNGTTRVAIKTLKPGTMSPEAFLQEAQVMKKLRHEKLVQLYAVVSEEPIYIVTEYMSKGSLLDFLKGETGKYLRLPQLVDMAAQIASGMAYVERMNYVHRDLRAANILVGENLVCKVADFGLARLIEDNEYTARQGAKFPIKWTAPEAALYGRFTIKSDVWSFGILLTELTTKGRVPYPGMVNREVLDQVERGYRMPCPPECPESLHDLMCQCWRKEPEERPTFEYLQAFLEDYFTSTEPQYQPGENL

For orientation: inhibition means the relative decrease from the control value, in per cent. A lower inhibition goes with a response near the control. In test [1], `c1ccc(Nc2ncnc3c2nc2n3Cc3ccccc3N2)cc1` came in with an inhibition of 58%. Moreover, the Activity in the test with L1210 came out at 34.3 µM.

Take `Cl.c1ccc(CNc2ncnc3c2nc2n3Cc3ccccc3N2CCN2CCOCC2)cc1`: the inhibition in test [1] came out at 9%. For the same molecule, in the test on L1210, the Activity came out at 31 µM.

As to `Nc1ncnc2c1nc1n2Cc2ccccc2N1`, in test [1], the inhibition amounted to 72%. For the same molecule, the Activity with L1210 was found to be 7.3 µM.

In the case of `Cl.Clc1ccccc1Nc1ncnc2c1nc1n2Cc2ccccc2N1CCN1CCOCC1`, the inhibition in test [1] is 20%. The same molecule registered an Activity in the test on L1210 of 11.9 µM.

Take `Nc1nc(Cl)nc2c1nc1n2Cc2ccccc2N1`: the inhibition in test [1] is 49%. In the test on L1210, this molecule had an Activity of 23 µM.

Consider `Cl.c1ccc(Nc2ncnc3c2nc2n3Cc3ccccc3N2CCN2CCOCC2)cc1`, for which, in test [1], the inhibition came out at 15%. The molecule further yielded an Activity in the test with L1210 of 16.1 µM.

With `CCN(CC)CCN1c2ccccc2Cn2c1nc1c(Nc3ccccc3)ncnc12.Cl`, in test [1], the inhibition came to 0%. In the test with L1210, the Activity was 17.9 µM.

In turn, `Brc1ccccc1Nc1ncnc2c1nc1n2Cc2ccccc2N1CCN1CCOCC1.Cl` showed an inhibition in test [1] of 30%. This molecule showed an Activity with L1210 of 21.9 µM.
